Experimental data reported in article PMC2965585 (Bioorganic & medicinal chemistry letters, 2010).

Tests used:
[1] = system: Lethal Toxin (LT; PA + LF); set-up: species or system Fischer 344 rats; conditions: rat, in vivo
[2] = target: anthrax lethal factor (LF) (Bacillus anthracis, UniProt P15917); format: biochemical
Sequence of anthrax lethal factor (LF) (P15917 34-809 limits assumed): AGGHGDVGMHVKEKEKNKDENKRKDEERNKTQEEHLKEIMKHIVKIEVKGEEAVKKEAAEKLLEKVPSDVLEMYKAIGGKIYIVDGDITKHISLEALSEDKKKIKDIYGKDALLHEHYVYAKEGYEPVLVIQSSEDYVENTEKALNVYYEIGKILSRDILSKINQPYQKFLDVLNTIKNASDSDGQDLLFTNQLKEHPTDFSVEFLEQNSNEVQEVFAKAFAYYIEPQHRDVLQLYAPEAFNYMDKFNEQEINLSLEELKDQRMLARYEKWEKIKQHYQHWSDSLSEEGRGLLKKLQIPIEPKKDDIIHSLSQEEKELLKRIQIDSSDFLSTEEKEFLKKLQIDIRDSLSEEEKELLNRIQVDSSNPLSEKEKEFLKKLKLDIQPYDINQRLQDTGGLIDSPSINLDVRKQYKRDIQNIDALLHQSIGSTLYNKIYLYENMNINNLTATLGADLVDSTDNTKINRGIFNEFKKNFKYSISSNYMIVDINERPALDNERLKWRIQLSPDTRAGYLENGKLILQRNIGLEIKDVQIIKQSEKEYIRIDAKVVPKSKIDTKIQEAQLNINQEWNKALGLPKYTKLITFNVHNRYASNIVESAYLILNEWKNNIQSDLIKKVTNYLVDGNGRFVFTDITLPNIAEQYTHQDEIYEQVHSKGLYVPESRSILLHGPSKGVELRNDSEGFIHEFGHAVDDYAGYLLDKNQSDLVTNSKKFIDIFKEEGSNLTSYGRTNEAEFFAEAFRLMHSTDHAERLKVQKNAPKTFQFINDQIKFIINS

Compound	protection [1]	protection (percent survival) [1] [%]	time after treatment with LT at which animals became ill ([1]; 2.5 mg/kg)	time post exposure by which animals appeared fully recovered ([1]; 2.5 mg/kg) [h]	mode of inhibition (kinetic studies) [2]
Cc1cc(CNCCCC[C@@H](Nc2cc(C)c(F)c(C)c2)C(=O)NO)ccc1F [Compound 16]	fully protective	100	approximately 3 hours	≤ 24	
CO[C@H](C[C@H](CCN(C)CCCc1ccc(F)c(C)c1)C(=O)NO)c1ccc(F)cc1 [Compound 40]					competitive behavior
